{
  "source": "patent US10786930B2",
  "about": "“Articles having antimicrobial properties and methods of manufacturing the same” (Medline Industries, Inc., priority 2010, dated 2020)",
  "test_system": "aerobic bacteria",
  "test": "total bacterial count test on finished gloves (TSA plates)",
  "settings": "FIG. 5, total bacteria count on prepared articles as a function of CHG concentration in the coagulant",
  "experimental": "In order to determine the effectiveness of the antimicrobial coagulant on a finished article, a total bacterial count test was completed on the article prepared using the above formulas. The following three concentrations were prepared: 0.8% Saline Solution (sodium Chloride), 4% TSA & 6.5% SDA solution, which were subsequently sterilized at 121° C. for 15 minutes. Three gloves made with each formula were cut into two pieces each and were soaked into 60 ml Saline solution and shaken for 10 minutes. After that, 1 ml of the solution and 1 ml of Agar solution (TSA and SDA) were pipetted out into a Petri dish. The Petri dish plates were incubated for 2 days at 30-35° C. for TSA & 4 days at 20-25° C. for SDA. The colonies on each plate was counted and total fungus/aerobic bacteria count per glove was calculated as: Total Aerobic Bacteria Count Per Glove=(Count of TSA plate*60)/3 Total Fungus Count Per Glove=(Count of SDA plate*60)/3 The results of total bacteria count on TSA for above four samples and control sample are listed below.",
  "data": [
    {"smiles": "N=C(NCCCCCCNC(=N)NC(=N)Nc1ccc(Cl)cc1)NC(=N)Nc1ccc(Cl)cc1.O=C(O)[C@H](O)[C@@H](O)[C@H](O)[C@H](O)CO.O=C(O)[C@H](O)[C@@H](O)[C@H](O)[C@H](O)CO", "note": "[CHG, chlorhexidine gluconate]", "values": [
      {"measurement": "concentration of CHG up to which total bacteria count decreased (above it the count increased)", "value": "approximately 0.02%"}
    ]}
  ]
}
